Reference: US20110092367A1, “Herbicidal Compositions Comprising 4-amino-3,6-dichloropyridine-2-carboxylic Acid” (BASF SE, priority 2008, published 2011)

Assays:
Assay type in all cases: in vivo
Stellaria media = assay: Field trial Example 1, successive application: damage on STEME
Description: (§1) Aminiopyralid was used as commercial aquaeous solution having an active ingredient concentration of 240 g/l (Milestone™). Metazachlor was used as a commercial suspension concentrate having an active ingredient concentration of 500 g/l (Butisan S®).
(§2) The performance of aminopyralid applied as an alone treatment at 15, 30 and 50 g a.i./ha applied as an early post emergence treatment and an post emergence treatment in comparison to two different applications including metazachlor at 500 g a.i./ha as an early post emergence application in succession of aminopyralid as a post emergence application at 15 and 30 g a.i./ha was assessed in an oilseed rape field trials.
(§3) The early post emergence treatment was applied by means of fine distributed nozzles at the growth stage (GS) of the crop BBCH 11-12.
(§4) The post emergence treatment was applied by means of fine distributed nozzles at the growth stage (GS) of the crop BBCH 13-14.
(§5) The test period extended over the autumn and spring season (205 days).
(§6) In the following experiments, the herbicidal activity for the individual herbicide compounds (solo application) and of the herbicidal succession was assessed 4 times:
(§7) The evaluation for the damage on undesired weeds caused by the chemical compositions was carried out using a scale from 0 to 100%, compared to the untreated control plants. Here, 0 means no damage and 100 means complete destruction of the plants.

Centauria cyanus = assay: Greenhouse trial, post-emergence: CENCY; details: for % activity 28 DAT: CENCY, post-emergence (Tables 7-9)
Protocol: (§8) The test plants have been seeded, separately for each species, in plastic containers in sandy loamy soil containing 5% organic matter.
(§9) For the post emergence treatment, the plants were first grown to the 2 leaf station (GS 12). Here, the herbicidal compositions were suspended or emulsified in water as distribution medium and sprayed using finely distributing nozzels.
(§10) The plants have been cultivated due to there individual requirements at 10-25° C. and 20-35° C. The plants were irrigated due to there necessity. […]
as §7
(§11) Calculation of expected activity of binary mixtures was done by using the Colby-Formula according to Example 1.

Matricaria inodora = assay: Greenhouse trial, post-emergence: MATIN; details: post-emergence (Tables 7-9)
Protocol: as §8, §9, §10, §7, §11

oilseed rape = assay: Field trial Example 1, successive application: phytotoxicity (PHYTOX) on oilseed rape crop; details: for PHYTOX (damage on the oilseed rape crop): DAT 205/DALT 190
Description: as §1, §2, §3, §4, §5, §6
The evaluation for the damage on the oilseed rape crop, the plant injury or phytotoxicity (PHYTOX) caused by the chemical compositions was carried out using a scale from 0 to 100%, compared to the untreated control plants. Here, 0 means no damage and 100 means high injury of the plants.

Papaver rhoeas = assay: Greenhouse trial, post-emergence: PAPRH; details: aminopyralid 10 g ai/ha solo
Protocol: as §8, §9, §10, §7, §11

Lamium purpureum = assay: Greenhouse trial, post-emergence: LAMPU; details: for % activity 28 DAT: LAMPU
Protocol: as §8, §9, §10, §7, §11

Matricaria chamomilla = assay: Greenhouse trial, post-emergence: MATCH; details: read-out: % activity, MATCH
Protocol: as §8, §9
The plants have been cultivated due to there individual requirements at 10-25° C. and 20-35° C. The plants were irrigated due to there necessity.
In the following experiments, the herbicidal activity for the individual herbicide compounds (solo and mixture applications), the herbicidal succession was assessed 14 days after treatment (DAT).
as §7, §11
E=(X+Y+Z)−(X*Y+X*Z+Y*Z/100)+(X*Y*Z/1000)
Tables 6 to 10 relate to the herbicidal activity, in greenhouse trials, of the individual actives and the combination in post-emergence application 14 DAT.

Apera spica-venti = assay: Field trial Example 1, successive application: damage on APESV
Description: as §1, §2, §3, §4, §5, §6, §7

[1] = 15 g ai/ha, treatment A early post emergence, DAT 25/DALT 10
[2] = 15 g ai/ha, treatment A early post emergence, DAT 65/DALT 50
[3] = 15 g ai/ha, treatment A early post emergence, DAT 176/DALT 161
[4] = 15 g ai/ha, treatment B post emergence, DAT 25/DALT 10
[5] = 15 g ai/ha, treatment B post emergence, DAT 65/DALT 50
[6] = 15 g ai/ha, treatment B post emergence, DAT 176/DALT 161
[7] = 30 g ai/ha, treatment A early post emergence, DAT 25/DALT 10
[8] = 30 g ai/ha, treatment A early post emergence, DAT 65/DALT 50
[9] = 30 g ai/ha, treatment A early post emergence, DAT 176/DALT 161
[10] = 30 g ai/ha, treatment B post emergence, DAT 25/DALT 10
[11] = 30 g ai/ha, treatment B post emergence, DAT 65/DALT 50
[12] = 30 g ai/ha, treatment B post emergence, DAT 176/DALT 161
[13] = 50 g ai/ha, treatment A early post emergence, DAT 25/DALT 10
[14] = 50 g ai/ha, treatment A early post emergence, DAT 65/DALT 50
[15] = 50 g ai/ha, treatment A early post emergence, DAT 176/DALT 161
[16] = 50 g ai/ha, treatment B post emergence, DAT 25/DALT 10
[17] = 50 g ai/ha, treatment B post emergence, DAT 65/DALT 50
[18] = 50 g ai/ha, treatment B post emergence, DAT 176/DALT 161
[19] = aminopyralid 15 g ai/ha, treatment A, DAT 205/DALT 190
[20] = aminopyralid 15 g ai/ha, treatment B, DAT 205/DALT 190
[21] = aminopyralid 30 g ai/ha, treatment A, DAT 205/DALT 190
[22] = aminopyralid 30 g ai/ha, treatment B, DAT 205/DALT 190
[23] = aminopyralid 50 g ai/ha, treatment A, DAT 205/DALT 190
[24] = aminopyralid 50 g ai/ha, treatment B, DAT 205/DALT 190
[25] = post-emergence, 672 h, read-out: % activity 28 DAT, CENCY
[26] = Lamium purpureum, post-emergence, 672 h, read-out: % activity 28 DAT, LAMPU

Nc1cc(Cl)nc(C(=O)O)c1Cl [aminopyralid, 4-amino-3,6-dichloropyridine-2-carboxylic acid]
damage on STEME (Stellaria media; [1]): 32% | damage on STEME (Stellaria media; [2]): 52% | damage on STEME (Stellaria media; [3]): 93% | damage on STEME (Stellaria media; [4]): 12% | damage on STEME (Stellaria media; [5]): 50% | damage on STEME (Stellaria media; [6]): 77% | damage on STEME (Stellaria media; [7]): 90% | damage on STEME (Stellaria media; [8]): 97% | damage on STEME (Stellaria media; [9]): 98% | damage on STEME (Stellaria media; [10]): 38% | damage on STEME (Stellaria media; [11]): 68% | damage on STEME (Stellaria media; [12]): 95% | damage on STEME (Stellaria media; [13]): 100% | damage on STEME (Stellaria media; [14]): 100% | damage on STEME (Stellaria media; [15]): 100% | damage on STEME (Stellaria media; [16]): 67% | damage on STEME (Stellaria media; [17]): 88% | damage on STEME (Stellaria media; [18]): 95% | damage on STEME (Stellaria media; [19]): 93% | damage on STEME (Stellaria media; [20]): 78% | damage on STEME (Stellaria media; [21]): 100% | damage on STEME (Stellaria media; [22]): 98% | damage on STEME (Stellaria media; [23]): 100% | damage on STEME (Stellaria media; [24]): 97% | % activity 28 DAT (Centauria cyanus; aminopyralid 5 g ai/ha solo): 60% | % activity 28 DAT (Centauria cyanus; aminopyralid 10 g ai/ha solo): 65% | inhibition at 5 g/ha (Centauria cyanus; [25]): 70% | inhibition at 10 g/ha (Centauria cyanus; [25]): 85% | % activity 28 DAT (Matricaria inodora; aminopyralid 5 g ai/ha solo): 35% | % activity 28 DAT (Matricaria inodora; aminopyralid 10 g ai/ha solo): 80% | PHYTOX (damage on oilseed rape crop) (oilseed rape; [1]): 11% | PHYTOX (damage on oilseed rape crop) (oilseed rape; [2]): 3% | PHYTOX (damage on oilseed rape crop) (oilseed rape; [3]): 2% | PHYTOX (damage on oilseed rape crop) (oilseed rape; [4]): 0% | PHYTOX (damage on oilseed rape crop) (oilseed rape; [5]): 0% | PHYTOX (damage on oilseed rape crop) (oilseed rape; [6]): 0% | PHYTOX (damage on oilseed rape crop) (oilseed rape; [7]): 27% | PHYTOX (damage on oilseed rape crop) (oilseed rape; [8]): 30% | PHYTOX (damage on oilseed rape crop) (oilseed rape; [9]): 0% | PHYTOX (damage on oilseed rape crop) (oilseed rape; [10]): 0% | PHYTOX (damage on oilseed rape crop) (oilseed rape; [11]): 0% | PHYTOX (damage on oilseed rape crop) (oilseed rape; [12]): 0% | PHYTOX (damage on oilseed rape crop) (oilseed rape; [13]): 40% | PHYTOX (damage on oilseed rape crop) (oilseed rape; [14]): 50% | PHYTOX (damage on oilseed rape crop) (oilseed rape; [15]): 0% | PHYTOX (damage on oilseed rape crop) (oilseed rape; [16]): 7% | PHYTOX (damage on oilseed rape crop) (oilseed rape; [17]): 0% | PHYTOX (damage on oilseed rape crop) (oilseed rape; [18]): 0% | PHYTOX (damage on the oilseed rape crop) (oilseed rape; aminopyralid 15 g ai/ha, treatment A): 0% | PHYTOX (damage on the oilseed rape crop) (oilseed rape; aminopyralid 15 g ai/ha, treatment B): 0% | PHYTOX (damage on the oilseed rape crop) (oilseed rape; aminopyralid 30 g ai/ha, treatment A): 0% | PHYTOX (damage on the oilseed rape crop) (oilseed rape; aminopyralid 30 g ai/ha, treatment B): 0% | PHYTOX (damage on the oilseed rape crop) (oilseed rape; aminopyralid 50 g ai/ha, treatment A): 0% | PHYTOX (damage on the oilseed rape crop) (oilseed rape; aminopyralid 50 g ai/ha, treatment B): 0% | % activity 28 DAT (Papaver rhoeas; post-emergence (Table 10)): 95% | % activity 28 DAT (Papaver rhoeas; post-emergence (Tables 7-9)): 35% | % activity 28 DAT (Lamium purpureum; aminopyralid 5 g ai/ha solo, post-emergence (Table 10)): 20% | % activity 28 DAT (Lamium purpureum; aminopyralid 5 g ai/ha solo, post-emergence (Tables 7-9)): 30% | % activity 28 DAT (Lamium purpureum; aminopyralid 10 g ai/ha solo, post-emergence (Table 10)): 30% | % activity 28 DAT (Lamium purpureum; aminopyralid 10 g ai/ha solo, post-emergence (Tables 7-9)): 65% | inhibition at 5 g/ha (Lamium purpureum; [26]): 20% | inhibition at 10 g/ha (Lamium purpureum; [26]): 30% | inhibition at 5 g/ha (Matricaria chamomilla): 75% | inhibition at 10 g/ha (Matricaria chamomilla): 85% | damage on APESV (Apera spica-venti; [2]): 28% | damage on APESV (Apera spica-venti; [3]): 28% | damage on APESV (Apera spica-venti; [5]): 32% | damage on APESV (Apera spica-venti; [6]): 32% | damage on APESV (Apera spica-venti; [8]): 47% | damage on APESV (Apera spica-venti; [9]): 47% | damage on APESV (Apera spica-venti; [11]): 38% | damage on APESV (Apera spica-venti; [12]): 38% | damage on APESV (Apera spica-venti; [14]): 85% | damage on APESV (Apera spica-venti; [15]): 85% | damage on APESV (Apera spica-venti; [17]): 55% | damage on APESV (Apera spica-venti; [18]): 55% | damage on APESV (Apera spica-venti; [19]): 28% | damage on APESV (Apera spica-venti; [20]): 45% | damage on APESV (Apera spica-venti; [21]): 47% | damage on APESV (Apera spica-venti; [22]): 38% | damage on APESV (Apera spica-venti; [23]): 85% | damage on APESV (Apera spica-venti; [24]): 55%
